28 compounds from US12577242B2, “Pyrrolopyridine and imidazopyridine antiviral compounds” (KATHOLIEKE UNIVERSITEIT LEUVEN, priority 2020, dated 2026) can be followed below.

Molecules are shown by their SMILES.

Data set [1] concerns Bovine viral diarrhea (BVD) virus. In words: Anti-BVDV CPE inhibition assay in MDBK cells. As to conditions: for EC50: Bovine viral diarrhea virus isolates and strains, MDBK, in Bos taurus, 96 h; for SI (selectivity index, ratio of CC50 and EC50): CC50/EC50, MDBK cells, BVD virus.
The nature of data set [2]: Cytotoxicity in MDBK cells (no BVD virus added). The settings on record: bovine, MDBK cells (Madin-Darby bovine kidney), no virus added.

By EC50 is commonly meant the concentration needed to bring the measured effect to its halfway point. A high value points to lower potency in that assay. Usually CC50 stands for the concentration at which the toxic effect on the cells reaches its halfway point. A higher CC50 goes with lower toxicity to the cells. Consider `Cc1ccc2sc(Cn3ccc4nc(-c5cnn(C)c5C)nc-4c3)nc2c1` [CPD-2, 2-((2-(1,5-dimethyl-1H-pyrazol-4-yl)-5H-imidazo[4,5-c]pyridin-5-yl)methyl)-5-methylbenzo[d]thiazole], for which, in data set [1], it took 79 ± 4 nM to reach a half-maximal effect (EC50); the “SI (selectivity index, ratio of CC50 and EC50)” value was >633. Besides, in data set [2], the CC50 at 4 days was > 50000 nM.

`Cc1c(-c2nc3ccn(Cc4nc5ccccc5s4)cc-3n2)cnn1C` [CPD-3, 2-((2-(1,5-dimethyl-1H-pyrazol-4-yl)-5H-imidazo[4,5-c]pyridin-5-yl)methyl)benzo[d]thiazole]: in data set [1], the midpoint of the response, the EC50, lay at 78 ± 5 nM; the “SI (selectivity index, ratio of CC50 and EC50)” value is on record as >641. Besides, the CC50 at 4 days in data set [2] was > 50000 nM.

For `Cc1c(-c2nc3ccn(Cc4nc5cc(Cl)ccc5s4)cc-3n2)cnn1C` [CPD-4, 5-chloro-2-((2-(1,5-dimethyl-1H-pyrazol-4-yl)-5H-imidazo[4,5-c]pyridin-5-yl)methyl)benzo[d]thiazole], in data set [1], it took 84 ± 3 nM to reach a half-maximal effect (EC50); the “SI (selectivity index, ratio of CC50 and EC50)” value is on record as >595. Further, the CC50 at 4 days in data set [2] was > 50000 nM.

For the compound `Cc1c(-c2nc3ccn(Cc4nc5ccc(Cl)cc5s4)cc-3n2)cnn1C` [CPD-5, 6-chloro-2-((2-(1,5-dimethyl-1H-pyrazol-4-yl)-5H-imidazo[4,5-c]pyridin-5-yl)methyl)benzo[d]thiazole], in data set [1], the EC50 was 27 ± 27 nM; the “SI (selectivity index, ratio of CC50 and EC50)” value is >1852. Also, the CC50 at 4 days in data set [2] is > 50000 nM.

In the case of `Cc1c(-c2nc3ccn(Cc4nc5ccc6ccccc6c5s4)cc-3n2)cnn1C` [CPD-6, 2-((2-(1,5-dimethyl-1H-pyrazol-4-yl)-5H-imidazo[4,5-c]pyridin-5-yl)methyl)naphtho[2,1-d]thiazole], in data set [1], the EC50 amounted to 14 ± 1 nM; the “SI (selectivity index, ratio of CC50 and EC50)” value is listed as >3571. Besides, the CC50 at 4 days in data set [2] was > 50000 nM.

Regarding `Cc1ccc2oc(Cn3ccc4nc(-c5cnn(C)c5C)nc-4c3)nc2c1` [CPD-8, 2-((2-(1,5-dimethyl-1H-pyrazol-4-yl)-5H-imidazo[4,5-c]pyridin-5-yl)methyl)-5-methylbenzo[d]oxazole], in data set [1], a half-maximal effect (EC50) was put at 79 ± 4 nM; the “SI (selectivity index, ratio of CC50 and EC50)” value is >633. For the same compound, the CC50 at 4 days in data set [2] was > 50000 nM.

With `Cc1c(-c2nc3ccn(Cn4nnc5ccccc54)cc-3n2)cnn1C` [CPD-9, 1-((2-(1,5-dimethyl-1H-pyrazol-4-yl)-5H-imidazo[4,5-c]pyridin-5-yl)methyl)-1H-benzo[d][1,2,3]triazole], in data set [1], the EC50 turned out to be 346 ± 86 nM; the “SI (selectivity index, ratio of CC50 and EC50)” value is recorded as 64. It took 22000 nM to reach half-maximal cytotoxicity in data set [2] (CC50 at 4 days).

Regarding `Cc1ccc2sc(Cn3ccc4nc(-c5cn(C)nc5C)nc-4c3)nc2c1` [CPD-11, 2-((2-(1,3-dimethyl-1H-pyrazol-4-yl)-5H-imidazo[4,5-c]pyridin-5-yl)methyl)-5-methylbenzo[d]thiazole], in data set [1], the EC50 turned out to be 300 ± 100 nM; the “SI (selectivity index, ratio of CC50 and EC50)” value was >167. For the same compound, the CC50 at 4 days in data set [2] was > 50000 nM.

As for `Cc1ccc2oc(Cn3ccc4nc(-c5cn(C)nc5C)nc-4c3)nc2c1` [CPD-12, 2-((2-(1,3-dimethyl-1H-pyrazol-4-yl)-5H-imidazo[4,5-c]pyridin-5-yl)methyl)-5-methylbenzo[d]oxazole], in data set [1], a half-maximal effect (EC50) was put at 256 ± 111 nM; the “SI (selectivity index, ratio of CC50 and EC50)” value is given as >195. Besides, in data set [2], the half-maximal cytotoxic concentration (CC50) at 4 days was > 50000 nM.

Turning to `Cc1nn(C)c(C)c1-c1nc2ccn(Cc3cc(-c4cc(F)ccc4F)no3)cc-2n1` [CPD-13, 3-(2,5-difluorophenyl)-5-((2-(1,3,5-trimethyl-1H-pyrazol-4-yl)-5H-imidazo[4,5-c]pyridin-5-yl)methyl)isoxazole], in data set [1], a half-maximal response (EC50) required 95 ± 22 nM; the “SI (selectivity index, ratio of CC50 and EC50)” value is on record as >526. For the same compound, the CC50 at 4 days in data set [2] was > 50000 nM.

With `COc1ncccc1-c1nc2ccn(Cc3nc4ccc(C)cc4s3)cc-2n1` [CPD-14, 2-((2-(2-methoxypyridin-3-yl)-5H-imidazo[4,5-c]pyridin-5-yl)methyl)-6-methylbenzo[d]thiazole], in data set [1], the EC50 was found to be 20 ± 4 nM; the “SI (selectivity index, ratio of CC50 and EC50)” value is recorded as >2500. The CC50 at 4 days in data set [2] is > 50000 nM.

As for `COc1ncccc1-c1nc2ccn(Cc3nc4cc(C)ccc4s3)cc-2n1` [CPD-15, 2-((2-(2-methoxypyridin-3-yl)-5H-imidazo[4,5-c]pyridin-5-yl)methyl)-5-methylbenzo[d]thiazole], in data set [1], the half-maximal effective concentration (EC50) is 86 ± 4 nM; the “SI (selectivity index, ratio of CC50 and EC50)” value was >581. In data set [2], the CC50 at 4 days was > 50000 nM.

As for `COc1ncccc1-c1nc2ccn(Cc3nc4cc(C)ccc4o3)cc-2n1` [CPD-16, 2-((2-(2-methoxypyridin-3-yl)-5H-imidazo[4,5-c]pyridin-5-yl)methyl)-5-methylbenzo[d]oxazole], in data set [1], the EC50 came out at 117 nM; the “SI (selectivity index, ratio of CC50 and EC50)” value is given as >427. Further, the CC50 at 4 days in data set [2] is > 50000 nM.

For `COc1ncccc1-c1nc2ccn(Cc3cc(-c4cc(F)ccc4F)no3)cc-2n1` [CPD-17, 3-(2,5-difluorophenyl)-5-((2-(2-methoxypyridin-3-yl)-5H-imidazo[4,5-c]pyridin-5-yl)methyl)isoxazole], in data set [1], the EC50 was found to be 72 ± 2 nM; the “SI (selectivity index, ratio of CC50 and EC50)” value is 1389. Also, in data set [2], the CC50 at 4 days is 100000 nM.

As to `COc1ccccc1-c1nc2ccn(Cc3nc4ccc(C)cc4s3)cc-2n1` [CPD-18, 2-((2-(2-methoxyphenyl)-5H-imidazo[4,5-c]pyridin-5-yl)methyl)-6-methylbenzo[d]thiazole], in data set [1], a half-maximal effect (EC50) was put at 2 ± 1 nM; the “SI (selectivity index, ratio of CC50 and EC50)” value was found to be 10000. The midpoint of cytotoxicity in data set [2], the CC50 at 4 days, lay at 20000 nM.

Take `COc1ccccc1-c1nc2ccn(Cc3cc(-c4cc(F)ccc4F)no3)cc-2n1` [CPD-19, 3-(2,5-difluorophenyl)-5-((2-(2-methoxyphenyl)-5H-imidazo[4,5-c]pyridin-5-yl)methyl)isoxazole]: in data set [1], a half-maximal effect (EC50) was put at 4 ± 1 nM; the “SI (selectivity index, ratio of CC50 and EC50)” value is given as 4750. The compound further came in with a CC50 at 4 days in data set [2] of 19000 nM.

Consider `COc1ccccc1-c1nc2ccn(Cn3nnc4ccccc43)cc-2n1` [CPD-20, 1-((2-(2-methoxyphenyl)-5H-imidazo[4,5-c]pyridin-5-yl)methyl)-1H-benzo[d][1,2,3]triazole], for which, in data set [1], the EC50 was 87 ± 3 nM; the “SI (selectivity index, ratio of CC50 and EC50)” value was >575. Besides, in data set [2], the CC50 at 4 days was > 50000 nM.

In the case of `Cc1ccc2nc(Cn3ccc4nc(-c5ccccc5OC(F)F)nc-4c3)sc2c1` [CPD-21, 2-((2-(2-(difluoromethoxy)phenyl)-5H-imidazo[4,5-c]pyridin-5-yl)methyl)-6-methylbenzo[d]thiazole], in data set [1], it took 409 nM to reach a half-maximal effect (EC50); the “SI (selectivity index, ratio of CC50 and EC50)” value was 76. Also, the CC50 at 4 days in data set [2] is 31000 nM.

With `Cc1ccc2nc(Cn3ccc4nc(-c5ccccc5F)nc-4c3)sc2c1` [CPD-22, 2-((2-(2-fluorophenyl)-5H-imidazo[4,5-c]pyridin-5-yl)methyl)-6-methylbenzo[d]thiazole], in data set [1], the EC50 is 19 ± 5 nM; the “SI (selectivity index, ratio of CC50 and EC50)” value was >5263. Besides, the CC50 at 4 days in data set [2] was > 100000 nM.

In the case of `Cc1ccc2sc(Cn3ccc4nc(-c5ccccc5F)nc-4c3)nc2c1` [CPD-23, 2-((2-(2-fluorophenyl)-5H-imidazo[4,5-c]pyridin-5-yl)methyl)-5-methylbenzo[d]thiazole], in data set [1], the EC50 was determined as 84 ± 29 nM; the “SI (selectivity index, ratio of CC50 and EC50)” value is >595. For the same compound, the CC50 at 4 days in data set [2] was > 50000 nM.

Regarding `Fc1ccccc1-c1nc2ccn(Cc3nc4ccccc4s3)cc-2n1` [CPD-24, 2-((2-(2-fluorophenyl)-5H-imidazo[4,5-c]pyridin-5-yl)methyl)benzo[d]thiazole], in data set [1], the EC50 was found to be 299 ± 91 nM; the “SI (selectivity index, ratio of CC50 and EC50)” value is >167. Besides, the CC50 at 4 days in data set [2] is > 50000 nM.

As for `Fc1ccccc1-c1nc2ccn(Cc3nc4ccc(Cl)cc4s3)cc-2n1` [CPD-25, 6-chloro-2-((2-(2-fluorophenyl)-5H-imidazo[4,5-c]pyridin-5-yl)methyl)benzo[d]thiazole], in data set [1], the EC50 worked out at 78 ± 4 nM; the “SI (selectivity index, ratio of CC50 and EC50)” value is recorded as >641. In addition, in data set [2], the CC50 at 4 days was > 50000 nM.

As to `Fc1ccccc1-c1nc2ccn(Cc3nc4cc(Cl)ccc4s3)cc-2n1` [CPD-26, 5-chloro-2-((2-(2-fluorophenyl)-5H-imidazo[4,5-c]pyridin-5-yl)methyl)benzo[d]thiazole], in data set [1], a half-maximal effect (EC50) was put at 96 ± 6 nM; the “SI (selectivity index, ratio of CC50 and EC50)” value is reported as >521. Moreover, in data set [2], the CC50 at 4 days was > 50000 nM.

As for `OCc1ccc2nc(Cn3ccc4nc(-c5ccccc5F)nc-4c3)sc2c1` [CPD-27, (2-((2-(2-fluorophenyl)-5H-imidazo[4,5-c]pyridin-5-yl)methyl)benzo[d]thiazol-6-yl)methanol], in data set [1], the EC50 amounted to 366 nM; the “SI (selectivity index, ratio of CC50 and EC50)” value is reported as >137. In addition, the half-maximal cytotoxic concentration (CC50) at 4 days in data set [2] is > 50000 nM.

In the case of `Fc1ccccc1-c1nc2ccn(Cc3ncc(-c4ccccc4)s3)cc-2n1` [CPD-28, 2-((2-(2-fluorophenyl)-5H-imidazo[4,5-c]pyridin-5-yl)methyl)-5-phenylthiazole], in data set [1], the midpoint of the response, the EC50, lay at 82 nM; the “SI (selectivity index, ratio of CC50 and EC50)” value is given as >610. Also, in data set [2], the CC50 at 4 days was > 50000 nM.

On to `Fc1ccccc1-c1nc2ccn(Cc3ccc(Cl)s3)cc-2n1` [CPD-30, 5-((5-chlorothiophen-2-yl)methyl)-2-(2-fluorophenyl)-5H-imidazo[4,5-c]pyridine], for which, in data set [1], the EC50 was found to be 129 ± 61 nM; the “SI (selectivity index, ratio of CC50 and EC50)” value is listed as >388. Further, the CC50 at 4 days in data set [2] was > 50000 nM.

Turning to `Cc1ccc2oc(Cn3ccc4nc(-c5ccccc5F)nc-4c3)nc2c1` [CPD-31, 2-((2-(2-fluorophenyl)-5H-imidazo[4,5-c]pyridin-5-yl)methyl)-5-methylbenzo[d]oxazole], in data set [1], it took 306 ± 98 nM to reach a half-maximal effect (EC50); the “SI (selectivity index, ratio of CC50 and EC50)” value was >163. Also, in data set [2], the CC50 at 4 days was > 50000 nM.

As for `Cc1ccc2nc(Cn3ccc4nc(-c5ccccc5F)nc-4c3)oc2c1` [CPD-32, 2-((2-(2-fluorophenyl)-5H-imidazo[4,5-c]pyridin-5-yl)methyl)-6-methylbenzo[d]oxazole], in data set [1], the midpoint of the response, the EC50, lay at 377 ± 16 nM; the “SI (selectivity index, ratio of CC50 and EC50)” value is >133. Also, in data set [2], the CC50 at 4 days was > 50000 nM.
